Measurements as given in patent publication EP0117060A2, “Methods of screening and amplification in eukaryotic host cells, and nucleotide sequences and expression vectors for use therein” (GENENTECH, INC., priority 1983, dated 1984).

How the values were obtained:
Assay type in all cases: cell-based, Chinese hamster
[1] = system: CHO-DUX-B11 (dhfr-) cells transfected with pFD11 (pFD11.1); assay: Growth inhibition by MTX, 3 day cell count assay, pFD11 transfected clone; conditions: Cricetulus griseus, 72 h; cells from the pFD11 transfected colony (pFD11.1), wild type DHFR plasmid; 3 days, cells counted; read-out: level of MTX which inhibits cell growth by 50 percent over the 3 day assay
Description: (§1) A deficiency of the wild type DHFR as a selectable marker in tissue culture systems is the relatively low degree of MTX resistance conferred upon the transfected cells by the transfected wild type enzyme expression plasmid. […] Individual colonies were isolated from pFR400 or pFDll transfected dhfr- cells and propagated in the absence of MTX. Equal amounts of cells from two clones and of CHO-Kl cells were trypsinized and split into 60 mm dishes. Various levels of MTX were added to each dish, the cells incubated for 3 days, and then counted.
(§2) The pFDll transfected cells were clearly less capable of growing in high levels of MTX than were the CHO-K1 (DHFR^+) cells grown under identical conditions. The level of MTX which inhibits cell growth by 50 percent over the 3 day assay was approximately 3 nM for cells derived from the pFDll transfected colony (pFD11.1) and was 20nM for CHO-K1 cells. In contrast to this, the colony (pFR400.1) isolated from the cells transfected with pFR400, was able to grow in extremely high levels of MTX. The 50 percent inhibition level for FR400.1 cells is approximately 3000 nM.

[2] = system: CHO-K1 cells; assay: Growth inhibition by MTX, 3 day cell count assay, untransformed wild type cells; conditions: Cricetulus griseus, 72 h, CHO-K1 (DHFR+) cells, 3 days, cells counted, read-out: level of MTX which inhibits cell growth by 50 percent over the 3 day assay
Description: as §1, §2

[3] = system: CHO-DUX-B11 (dhfr-) cells transfected with pFR400 (pFR400.1); assay: Growth inhibition by MTX, 3 day cell count assay, pFR400 transfected clone; conditions: Cricetulus griseus, 72 h; FR400.1 cells (colony from pFR400 transfected dhfr- cells, mutant DHFR 3T6 R400); 3 days, cells counted; read-out: 50 percent inhibition level
Description: as §1, §2

## CN(Cc1cnc2nc(N)nc(N)c2n1)c1ccc(C(=O)N[C@@H](CCC(=O)O)C(=O)O)cc1 [MTX, methotrexate]
[1]
  IC50: ~3 nM
[2]
  IC50: 20 nM
[3]
  IC50: ~3000 nM
